Assay results published in US12048691B2 (SPERO THERAPEUTICS, INC., priority 2020, dated 2024).
≈ marks a conversion by molar mass, not a printed value. Read-outs that look alike come from different tables or passages of the source.

Key:
E. coli [1] = experiment: Susceptibility of E. coli from urinary tract infections, 18 EU countries 2020 (STEWARD); assay type: cell-based
Procedure: The study assessed the prevalence of resistance and evaluated the activity of oral tebipenem (TBP) and comparators against EC from urinary tract infections.
Results were interpreted using EUCAST criteria. […] ESBL phenotypes were determined by CLSI criteria and sequenced to identify CTX-M-15 genotype and clonal complex ST131.

[2] = test system: bacteremia secondary to cUTI/AP; experiment: Efficacy in patients with cUTI or acute pyelonephritis and associated bacteremia; assay type: in vivo, human
Text: The objective of this analysis was to evaluate the efficacy of TBP-PI-HBr in the subset of patients with associated bacteremia from a study of patients with either cUTI or acute pyelonephritis.

[3] = test system: Enterobacterales overproducing AmpC; experiment: Broth microdilution susceptibility of isolates overexpressing AmpC; assay type: cell-based
Procedure: Frozen-form broth microdilution panels were manufactured by JMI Laboratories and contained cation-adjusted Mueller-Hinton broth. Quality assurance was performed by sterility checks, colony counts, and testing CLSI recommended quality control reference strains.

[4] = test system: AmpC production in Enterobacterales; experiment: AmpC induction (nitrocefin hydrolysis after drug exposure); assay type: cell-based; settings: tebipenem/imipenem except for C. koseri and S. marcescens
Procedure: (§1) AmpC induction was determined as follows. Baseline MIC values were determined by broth microdilution method, as described above, for 9 Gram-negative isolates with basal expression of ampC. These isolates were cultured overnight on blood agar plates. A standardized inoculum made from fresh overnight plate cultures was added to flasks containing 50 mL of Luria-Bertani (LB) broth and incubated by shaking at 37° C. to OD600 of 0.3. […] These cultures were incubated under shaking conditions. A 40 mL aliquot of bacterial cultures was sampled at time 0 and 2 hours after drug exposures. Each sample aliquot was harvested by centrifugation and the supernatant was discarded.
(§2) Protein crude extract preparations were made in 200 μL of BugBusterR (Novagen, Darmstadt, Germany) per manufacturer instructions and cell debris was removed by centrifugation. Protein concentrations were determined in each crude extract by standard methodologies.
(§3) AmpC induction was measured by the intensity of β-lactamase hydrolytic activity against 0.1 mM nitrocefin in 0.1 M phosphate buffer at pH 7.0 using spectrophotometry at 482 nm (Δ absorbance/minute/mg of protein). The drug exposure conditions that caused a >4-fold increase in hydrolysis activity compared to the baseline were subjected to postinduction experiments. Briefly, cells were grown under the same conditions as before and tested for susceptibility by broth microdilution.

[5] = test system: AmpC production in P. aeruginosa; experiment: as above; assay type: cell-based
Procedure: as §1, §2, §3

[6] = test system: Methicillin-susceptible Staphylococcus aureus (MSSA); experiment: Broth microdilution against Gram-positive clinical isolates; assay type: cell-based; settings: Staphylococcus aureus, 489 isolates
Procedure: The purpose of this study was to investigate the in vitro activity of tebipenem and comparator agents, including ertapenem and meropenem, against a recent collection of Gram-positive isolates associated with clinical infections. The susceptibility of 580 Gram-positive organisms were tested, including: Methicillin-susceptible Staphylococcus aureus (MSSA, 489 isolates), Methicillin-susceptible Staphylococcus epidermidis (MSSE, 31), other methicillin-susceptible coagulase-negative staphylococci (MSCONS, 29), and Vancomycin-susceptible Enterococcus faecalis (31). Bacterial species were identified by JMI Laboratories using standard microbiology methods and matrix-assisted laser desorption ionization-time of flight mass spectrometry (Bruker Daltonics, Bremen, Germany). The isolates were collected in 2018 and 2019 as part of the SENTRY surveillance program and selected to be representative of these species with 45.0% from the United States, 44.3% from Europe, 5.3% from the Asia-Pacific region, and 5.3% from Latin America. Isolates are primarily from pneumonia in hospitalized patients (498 isolates; 85.9%), urinary tract infections (42 isolates; 7.2%), and bloodstream infections (38 isolates; 6.6%). Isolates were tested in a central laboratory (JMI Laboratories) for antimicrobial susceptibility using the CLSI M07 (2018) reference broth microdilution method. JMI Laboratories produced frozen-form 96-well panels and used cation-adjusted Mueller-Hinton broth (CA-MHB) as the testing medium. All categorical interpretations used CLSI M100 (2021) and EUCAST v10.0 (2021) breakpoint criteria, where published. Quality control organisms include Escherichia coli ATCC 25922, Escherichia coli ATCC 35218, Enterococcus faecalis ATCC 29212, Pseudomonas aeruginosa ATCC 27853, and Staphylococcus aureus ATCC 29213 were tested concurrently with clinical isolates.

[7] = test system: other methicillin-susceptible coagulase-negative staphylococci (MSCONS); experiment: as above; assay type: cell-based; settings: 29 isolates
Procedure: The purpose of this study was to investigate the in vitro activity of tebipenem and comparator agents, including ertapenem and meropenem, against a recent collection of Gram-positive isolates associated with clinical infections. The susceptibility of 580 Gram-positive organisms were tested, including: […] Bacterial species were identified by JMI Laboratories using standard microbiology methods and matrix-assisted laser desorption ionization-time of flight mass spectrometry (Bruker Daltonics, Bremen, Germany). […] Isolates were tested in a central laboratory (JMI Laboratories) for antimicrobial susceptibility using the CLSI […] (2018) reference broth microdilution method. JMI Laboratories produced frozen-form 96-well panels and used cation-adjusted Mueller-Hinton broth (CA-MHB) as the testing medium. […] Quality control organisms include Escherichia coli ATCC 25922, Escherichia coli ATCC 35218, Enterococcus faecalis ATCC 29212, Pseudomonas aeruginosa ATCC 27853, and Staphylococcus aureus ATCC 29213 were tested concurrently with clinical isolates.

E. coli [8] = experiment: Broth microdilution against US UTI pathogens 2019-2020; assay type: cell-based; settings: E. coli (2,339); cefuroxime: oral breakpoint
Procedure: (§4) This study assessed the in vitro activity of tebipenem and comparator agents against Enterobacterales (ENT) responsible for UTIs in the US during 2019-2020. A total of 3,576 ENT recovered from urine samples during the 2019-2020 STEWARD Surveillance Program were included in the study. Isolates were collected from medical centers in all 9 US Census Regions and were centrally tested for susceptibility by reference broth microdilution method. MIC interpretation was performed based on CLSI criteria.

Enterobacterales (ENT) = experiment: as above; assay type: cell-based
Procedure: as §4

K. pneumoniae = experiment: as above; assay type: cell-based; settings: K. pneumoniae (511)
Procedure: as §4

P. mirabilis = experiment: as above; assay type: cell-based; settings: P. mirabilis (235), cefuroxime: oral breakpoint
Procedure: as §4

Work on `C[C@@H](O)[C@H]1C(=O)N2C(C(=O)O)=C(S[C@@H]3CN[C@H](C(=O)Nc4cccc(C(=O)O)c4)C3)[C@H](C)[C@H]12` [Ertapenem, ertapenem] yielded an MIC90 (E. coli [1]; Escherichia coli, all E. coli (764) from UTIs) of 0.03 µg/mL (≈ 0.0631 µM), a Susceptibility rate (E. coli [1]; all E. coli, EUCAST criteria) of 99.9% and a Clinical cure rate ([2]; EOT) of 100%. For the same compound, the Clinical cure rate ([2]; TOC) was 94.3%, the Overall response rate ([2]; end-of-treatment (EOT)) was 96.2% and the Clinical cure rate ([2]; late-follow-up (LFU) visit) was “approximately 89%”. The Overall response rate ([2]; test-of-cure (TOC)) was 66.0%, the MIC50 [3] was 0.12 µg/mL (≈ 0.252 µM) and the MIC90 [3] was 2 µg/mL (≈ 4.21 µM). For the same compound, the “CLSI %1” value ([3]; Enterobacterales (36)) was 8.3%, the “CLSI % R” value ([3]; Enterobacterales (36)) was 11.1% and the “CLSI % S” value ([3]; Enterobacterales (36)) was 80.6%. The MIC50 ([3]; Enterobacterales (36)) was 0.12 μ/ml, the MIC90 ([3]; Enterobacterales (36)) was 2 μ/ml and the “effect of exposure on production of AmpC” value [4] was “did not seem to affect production of AmpC”. The “effect of exposure on production of AmpC” value [5] was “not observed”, the MIC90 [6] was 0.25 µg/mL (≈ 0.526 µM) and the MIC90 [7] was 1 µg/mL (≈ 2.1 µM). For the same compound, the “% susceptible; CLSI” value (E. coli [8]) was “(99.6) %”, the MIC50 (Enterobacterales (ENT)) was at most 8 µg/mL and the MIC90 (Enterobacterales (ENT); All (3,567)) was 30 µg/mL (≈ 63.1 µM). The “% susceptible; CLSI” value (Enterobacterales (ENT); All (3,567), cefuroxime: oral breakpoint) was “(98.5) %”, the MIC90 (Enterobacterales (ENT); against ENT, EC, and KPN) was 0.03 µg/mL (≈ 0.0631 µM) and the “% susceptible; CLSI” value (K. pneumoniae; cefuroxime: oral breakpoint) was “(96.3) %”. For the same compound, the MIC50 (K. pneumoniae; Klebsiella pneumoniae, read-out: MIC50) was at most 8 µg/mL, the “% susceptible; CLSI” value (P. mirabilis) was “(100.0) %” and the “% susceptible; CLSI” value (P. mirabilis; listed as ERT) was 100.0%.
